Results: ChEMBL document CHEMBL5465560, “Selectivity Literature for EUbOPEN Chemogenomic Library” (2024)

How the values were obtained:
[1] = biological target: T1, Ephrin type-B receptor 3 (Homo sapiens) (UniProt P54753); assay: Selectivity interaction (ProQinase) EUB0000171b EPHB3
T1 sequence (whole entry): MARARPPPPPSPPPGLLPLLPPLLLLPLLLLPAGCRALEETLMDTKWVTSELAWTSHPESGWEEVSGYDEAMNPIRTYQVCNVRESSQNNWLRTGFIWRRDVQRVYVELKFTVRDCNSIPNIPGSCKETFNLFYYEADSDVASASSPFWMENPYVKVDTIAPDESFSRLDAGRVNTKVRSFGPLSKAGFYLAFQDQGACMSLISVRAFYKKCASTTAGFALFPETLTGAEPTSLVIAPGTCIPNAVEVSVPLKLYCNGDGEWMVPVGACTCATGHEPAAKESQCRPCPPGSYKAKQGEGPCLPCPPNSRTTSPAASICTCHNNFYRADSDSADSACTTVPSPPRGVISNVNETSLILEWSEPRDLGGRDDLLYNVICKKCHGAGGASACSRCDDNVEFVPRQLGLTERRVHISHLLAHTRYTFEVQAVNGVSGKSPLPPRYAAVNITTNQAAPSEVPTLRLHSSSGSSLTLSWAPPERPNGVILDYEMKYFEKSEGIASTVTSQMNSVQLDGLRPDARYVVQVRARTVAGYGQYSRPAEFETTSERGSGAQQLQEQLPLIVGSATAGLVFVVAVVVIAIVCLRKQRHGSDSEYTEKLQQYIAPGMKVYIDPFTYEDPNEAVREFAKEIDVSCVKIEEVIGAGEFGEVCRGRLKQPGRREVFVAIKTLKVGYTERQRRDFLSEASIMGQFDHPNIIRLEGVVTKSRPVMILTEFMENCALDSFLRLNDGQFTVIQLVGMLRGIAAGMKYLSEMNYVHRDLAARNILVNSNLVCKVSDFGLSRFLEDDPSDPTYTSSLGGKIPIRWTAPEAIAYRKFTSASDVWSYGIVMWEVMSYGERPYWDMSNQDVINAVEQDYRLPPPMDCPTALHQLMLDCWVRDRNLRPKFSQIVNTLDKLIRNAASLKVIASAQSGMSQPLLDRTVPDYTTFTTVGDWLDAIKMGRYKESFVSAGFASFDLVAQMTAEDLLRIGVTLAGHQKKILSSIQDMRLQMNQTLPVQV

[2] = biological target: T2, Serine/threonine-protein kinase TNNI3K (Homo sapiens) (UniProt Q59H18); assay: Selectivity interaction (KinomeScan (DiscoverX)) EUB0000618a TNNI3K; settings: at 10 µM
T2 sequence (whole entry): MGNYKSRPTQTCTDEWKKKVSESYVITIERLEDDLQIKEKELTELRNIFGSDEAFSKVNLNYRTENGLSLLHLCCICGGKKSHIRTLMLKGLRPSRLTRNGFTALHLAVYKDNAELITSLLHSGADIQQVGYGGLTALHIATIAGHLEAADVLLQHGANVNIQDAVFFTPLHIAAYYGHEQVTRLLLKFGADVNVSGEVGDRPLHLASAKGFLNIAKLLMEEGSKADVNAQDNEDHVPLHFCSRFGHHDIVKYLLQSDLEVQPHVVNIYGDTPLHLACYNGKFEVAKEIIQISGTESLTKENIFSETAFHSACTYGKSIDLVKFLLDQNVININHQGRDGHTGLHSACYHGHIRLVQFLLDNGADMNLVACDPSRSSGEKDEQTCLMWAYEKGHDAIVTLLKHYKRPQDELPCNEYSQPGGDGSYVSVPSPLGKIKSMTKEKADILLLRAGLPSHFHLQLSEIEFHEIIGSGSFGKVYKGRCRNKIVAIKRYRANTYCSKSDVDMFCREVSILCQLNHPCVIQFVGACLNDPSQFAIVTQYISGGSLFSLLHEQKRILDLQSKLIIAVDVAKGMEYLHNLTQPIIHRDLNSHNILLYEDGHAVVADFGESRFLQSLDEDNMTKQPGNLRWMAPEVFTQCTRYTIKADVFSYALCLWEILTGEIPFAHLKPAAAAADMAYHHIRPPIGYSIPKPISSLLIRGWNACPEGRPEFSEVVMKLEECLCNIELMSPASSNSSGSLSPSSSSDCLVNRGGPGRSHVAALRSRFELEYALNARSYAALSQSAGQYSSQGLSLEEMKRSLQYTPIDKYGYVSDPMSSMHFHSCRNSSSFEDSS

[3] = biological target: Protein arginine N-methyltransferase 6 (Homo sapiens, UniProt Q96LA8); settings: at 10 µM
Chain of Protein arginine N-methyltransferase 6 (Q96LA8 whole entry, looked up): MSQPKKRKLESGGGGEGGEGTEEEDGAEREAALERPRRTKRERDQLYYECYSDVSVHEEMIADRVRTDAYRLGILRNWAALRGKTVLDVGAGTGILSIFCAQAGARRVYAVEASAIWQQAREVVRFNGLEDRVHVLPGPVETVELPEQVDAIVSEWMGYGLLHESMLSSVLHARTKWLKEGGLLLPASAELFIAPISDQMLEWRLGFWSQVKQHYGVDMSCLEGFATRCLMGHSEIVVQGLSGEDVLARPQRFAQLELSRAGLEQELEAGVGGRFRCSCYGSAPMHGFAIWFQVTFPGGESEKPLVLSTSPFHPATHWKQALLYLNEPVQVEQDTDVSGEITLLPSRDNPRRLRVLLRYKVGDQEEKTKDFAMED

For `C=CC(=O)Nc1cccc(C(=O)Nc2ccc(Nc3cc(-c4[nH]c(SC)nc4C)ccn3)cc2)c1`, the % of control ([1]; at 1 µM) was 106% and the % of control ([1]; at 5 µM) was 108%.
For `O[C@H]1CC[C@H](Nc2ncc3nc(Nc4c(F)cc(F)cc4F)n([C@H]4CCOC4)c3n2)CC1`, the % of control [2] was 100%.
Compound `CNCCN1CCC(c2cc(CN(C)C(=O)c3cccc(Oc4ccccc4)c3)ccn2)CC1` has a % activity [3] of 42%.
